{"source": "patent US20250078975A1", "about": "“METHODS OF PREDICTING PATIENT TREATMENT RESPONSE AND RESISTANCE VIA SINGLE-CELL TRANSCRIPTOMICS OF THEIR TUMORS” (The USA, as represented by the Secretary, Department of …, priority 2023, published 2025)", "origin": "cited, not measured here", "system": "cancer cell lines", "conditions": "through downregulation of Akt (Bartholomeusz et al. 2011)"}
{"smiles": "Nc1ccn([C@@H]2O[C@H](CO)[C@@H](O)C2(F)F)c(=O)n1", "note": "[gemcitabine]", "values": [{"measurement": "Effect on erlotinib resistance", "value": "can overcome erlotinib resistance"}]}
